Data reported in the CheMixHub viscosity set.

Assay: xn = mol fraction of the nth substance listed

CC=CC(=O)O + c1ccccc1
viscosity [mPa·s], 101 kPa
Settings | 298.15 K | 303.15 K | 313.15 K | 323.15 K
x1 = 0.0503 | 0.6275 | 0.5854 | 0.5132 | 0.4526
x1 = 0.102 | 0.6591 | 0.6129 | 0.5349 | 0.472
x1 = 0.1492 | 0.6902 | 0.6364 | 0.5555 | 0.4889

CCCCCCN + c1ccccc1
303.15 K, 101 kPa
Settings | viscosity [mPa·s]
x2 = 0.105 | 0.6977
x2 = 0.2983 | 0.645
x2 = 0.4918 | 0.6006
x2 = 0.5946 | 0.5814
x2 = 0.6955 | 0.5639
x2 = 0.7954 | 0.5506
x2 = 0.8997 | 0.549

CNc1ccccc1 + c1ccccc1
298.15 K, 101 kPa
Settings | viscosity [mPa·s]
x2 = 0.069 | 1.851
x2 = 0.11 | 1.728
x2 = 0.17 | 1.601
x2 = 0.264 | 1.433
x2 = 0.376 | 1.226
x2 = 0.387 | 1.202
x2 = 0.428 | 1.156
x2 = 0.513 | 1.055
x2 = 0.582 | 0.966
x2 = 0.697 | 0.842
x2 = 0.802 | 0.747
x2 = 0.852 | 0.71
x2 = 0.93 | 0.656

OC(C(F)(F)F)C(F)(F)F + c1ccccc1
viscosity [mPa·s], 101 kPa
Settings | x1 = 0.04927 | x1 = 0.1096 | x1 = 0.1764 | x1 = 0.2481 | x1 = 0.3333 | x1 = 0.4173 | x1 = 0.5478 | x1 = 0.6489 | x1 = 0.8774
298.15 K | 0.595 | 0.589 | 0.583 | 0.585 | 0.612 | 0.648 | 0.743 | 0.834 | 1.216
313.15 K | 0.481 | 0.475 | 0.466 | 0.471 | 0.486 | 0.508 | 0.561 | 0.617 | 0.818
323.15 K | 0.425 | 0.423 | 0.412 | 0.414 | 0.425 | 0.441 | 0.482 | 0.521 | 0.658

Oc1ccccc1 + c1ccccc1
Settings | viscosity [mPa·s]
293.15 K, 101 kPa, x1 = 0.0507 | 0.683
293.15 K, 101 kPa, x1 = 0.0831 | 0.724
293.15 K, 101 kPa, x1 = 0.1719 | 0.865
293.15 K, 101 kPa, x1 = 0.2846 | 1.126
293.15 K, 101 kPa, x1 = 0.3763 | 1.401
293.15 K, 101 kPa, x1 = 0.4837 | 1.911
293.15 K, 101 kPa, x1 = 0.5924 | 2.642
293.15 K, 101 kPa, x1 = 0.7038 | 3.811
293.15 K, 101 kPa, x1 = 0.8043 | 5.35
298.15 K, 101.33 kPa, x1 = 0.083 | 0.6592
298.15 K, 101.33 kPa, x1 = 0.181 | 0.8516
298.15 K, 101.33 kPa, x1 = 0.2 | 0.841
298.15 K, 101.33 kPa, x1 = 0.239 | 0.9218
298.15 K, 101.33 kPa, x1 = 0.279 | 1.037
298.15 K, 101.33 kPa, x1 = 0.37 | 1.157
298.15 K, 101.33 kPa, x1 = 0.478 | 1.696
298.15 K, 101.33 kPa, x1 = 0.5 | 1.711
298.15 K, 101.33 kPa, x1 = 0.522 | 1.849
298.15 K, 101.33 kPa, x1 = 0.619 | 2.54
298.15 K, 101.33 kPa, x1 = 0.658 | 2.783
298.15 K, 101.33 kPa, x1 = 0.692 | 3.172
298.15 K, 101.33 kPa, x1 = 0.762 | 3.936
298.15 K, 101.33 kPa, x1 = 0.786 | 4.424
323.15 K, 101.33 kPa, x1 = 0.2 | 0.568
323.15 K, 101.33 kPa, x1 = 0.5 | 0.968

O=C1NC(=O)c2ccccc21 + c1ccncc1
298.15 K, 101 kPa
Settings | viscosity [mPa·s]
x1 = 0.0278 | 0.9878
x1 = 0.06788 | 1.182

Oc1ccccc1 + c1ccncc1
viscosity [mPa·s], 101 kPa
Settings | 293.15 K | 303.15 K | 313.15 K
x1 = 0.0707 | 1.109 | 0.94 | 0.828
x1 = 0.1391 | 1.321 | 1.106 | 0.965
x1 = 0.213 | 1.597 | 1.339 | 1.152
x1 = 0.2888 | 2.01 | 1.634 | 1.389
x1 = 0.349 | 2.411 | 1.963 | 1.631
x1 = 0.4283 | 3.215 | 2.515 | 2.042
x1 = 0.5063 | 4.37 | 3.245 | 2.56
x1 = 0.5971 | 5.945 | 4.29 | 3.245
x1 = 0.6675 | 7.48 | 5.17 | 3.8
x1 = 0.7481 | 9.07 | 6.04 | 4.305
x1 = 0.8284 | 10.04 | 6.625 | 4.59
x1 = 0.9114 | 10.72 | 6.915 | 4.705
